The results in this text go back to patent US20250163119A1, “COMPOUNDS FOR THE TREATMENT OF DIABETES OR OBESITY” (Eli Lilly and Company, priority 2023, published 2025).

One test deals with T1, human CRHR1 (Homo sapiens, UniProt P34998).
T1 construct: expressed in transfected cells
T1 sequence (P34998 24-415): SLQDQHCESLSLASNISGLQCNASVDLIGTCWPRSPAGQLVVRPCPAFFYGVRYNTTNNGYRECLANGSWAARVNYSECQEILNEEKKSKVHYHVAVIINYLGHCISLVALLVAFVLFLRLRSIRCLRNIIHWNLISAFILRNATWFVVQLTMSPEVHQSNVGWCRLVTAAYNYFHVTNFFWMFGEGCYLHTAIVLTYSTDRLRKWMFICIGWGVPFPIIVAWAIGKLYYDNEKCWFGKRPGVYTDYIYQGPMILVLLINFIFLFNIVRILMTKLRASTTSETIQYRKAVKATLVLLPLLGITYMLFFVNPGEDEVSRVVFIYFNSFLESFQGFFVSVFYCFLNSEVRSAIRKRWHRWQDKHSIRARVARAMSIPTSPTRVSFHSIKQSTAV
Briefly: Human CRHR1 cAMP assay (HTRF) in HEK293 cells stably expressing human CRHR1. It counts as cell-based. The note with it: HEK293 cells overexpressing human CRHR1; relative EC50, maximum 66 nM human UCN1; mean ± SE; read-out: hCRHR1 cAMP EC50 (pM, ± SE). On the procedure:
(§1) The corticotropin-releasing hormone (CRH) receptor 1 and 2 (CRHR1 and CRHR2) are GPCRs that were functionally coupled to Gs proteins. Stimulation of these receptors results in an increased production of intracellular cAMP, which can be detected using standard in vitro technologies. In vitro activity of peptides was measured by the amount of cAMP formed in human CRHR1 and CRHR2 overexpressed cells.
(§2) Human CRHR1 and CRHR2 receptors were stably expressed in human embryonic kidney cells (HEK293) under control of a pcDNA expression vector. The HEK293 cell line was cultured in DMEM 1× (Gibco, 93-0152DK) supplemented with 10% FBS, 1 mM sodium pyruvate, 1×MEM NEAA, 1× GlutaMAX and 10 mM HEPES. The plasmids of human CRHR1-pQCXIP (T7364) and human CRHR2b-R2683puro (T16761) DNA were transfected into HEK293 cells using Lipo fectAMINE 3000 Transfection reagent (Invitrogen, L3000001). After 20 days under selection, the mRNA levels from different clones were measured to confirm the expression of human CRHR1 and CRHR2 genes. To determine the function of over-expressed CRHR cells, the intracellular cAMP levels in response to human UCN1 and UCN2 were measured and compared to the expression of CRHR1 and CRHR2 mRNA in each clone.
(§3) Human CRHR1 cells were cultured in DMEM 1× (Gibco, 93-0152DK) supplemented with 10% FBS, 1 mM sodium pyruvate, 1×MEM NEAA, 1×GlutaMAX, 10 mM HEPES, and 800 μg/ml G418. Human CRHR2 cells were cultured at the same media (DMEM 1×, 10% FBS, 1 mM sodium pyruvate, 1×MEM NEAA, 1×GlutaMAX, 10 mM HEPES) in the presence of 0.5 ug/mL puromycin. Cultured cells were grown to 90% confluency and harvested. The cells were frozen at 10×10e6/ml in a mixture of […] fetal bovine serum plus 7% DMSO and stored in liquid nitrogen until use.
(§4) On the day of the assay, the frozen cells were thawed and diluted in assay buffer (Phenol Red free MEM (Corning, 17-305-CV, lot #32121010), 0.1% Casein (Sigma C4765, lot #SLCG2120), 5 mM HEPES pH 7.4 containing 0.25 mM IBMX). 10 ul of human CRHR1 cells (25,000 cells) or 10 μL of human CRHR2 cells (5,000 cells) were dispensed into each well of white poly-D-lysine coated 384-well plates (Corning cat #354661). Test compounds diluted in DMSO were added (200 nL/well) in a 1:3 dilution series using ECHO acoustic liquid handler (Beckman). The mixture of cells and test compounds were incubated at 37° C. for 1 hour for the hCRHR1 plate, while the CRHR2 plates were incubated at room temperature for 30 min.
(§5) The amount of intracellular cAMP was quantitated using HTRF technology (Homogeneous Time Resolved Fluorescence; Cisbio) as per vendor instructions. Briefly, 10 uL CAMP-d2 conjugate and 10 uL anti-CAMP-cryptate conjugate in lysis buffer were incubated with the treated cells at room temperature for 60 min. The HTRF signal was immediately detected using an Envision plate reader (Perkin-Elmer) to calculate the ratio of fluorescence at 665 to 620 nm.
(§6) Raw fluorescence data for concentration curves of the peptides in Table 2 and Table 3 were converted to cAMP amount (pmol/well) using a cAMP standard curve generated for each experiment.
A general note: Changes in cAMP serve as a functional read-out for many G protein-coupled receptors.

In a further test the target is T2, human CRHR2 (Homo sapiens, UniProt Q13324).
T2 construct: expressed in transfected cells
T2 sequence (Q13324 1-438 isoform Q13324-2): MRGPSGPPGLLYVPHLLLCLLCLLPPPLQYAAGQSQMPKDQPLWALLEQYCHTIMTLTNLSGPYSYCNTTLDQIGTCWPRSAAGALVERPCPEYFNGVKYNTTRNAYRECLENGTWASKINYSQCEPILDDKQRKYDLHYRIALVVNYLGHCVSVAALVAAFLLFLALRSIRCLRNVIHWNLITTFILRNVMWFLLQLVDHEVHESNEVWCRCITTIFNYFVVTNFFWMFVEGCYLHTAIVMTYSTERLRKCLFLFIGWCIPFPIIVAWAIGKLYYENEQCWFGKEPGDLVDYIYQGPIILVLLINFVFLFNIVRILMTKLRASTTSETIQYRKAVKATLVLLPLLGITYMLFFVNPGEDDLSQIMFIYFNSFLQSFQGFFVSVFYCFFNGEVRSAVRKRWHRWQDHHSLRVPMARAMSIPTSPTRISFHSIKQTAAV
Briefly: Human CRHR2 cAMP assay (HTRF) in HEK293 cells stably expressing human CRHR2. To be noted: HEK293 cells overexpressing human CRHR2; relative EC50, maximum 10 nM human UCN2; mean ± SE; read-out: hCRHR2 cAMP EC50 (pM, ± SE). It counts as cell-based. The procedure:
as §1, §2, §3, §4, §5, §6

Structures are written as SMILES. *1 amine or outer side, *2 acyl side, *3 side chain or, on linkers, in order; H or OH if unused. Where a SMILES comes first, the peptide text is derived from it. Side-chain parts run from the residue outwards. [ ]: non-standard residue; d: D form. The star is where a group is joined. C20 diacid = O=C(O)CCCCCCCCCCCCCCCCCCC(=O)*; γGlu = O=C(O)[C@H](CCC(=O)[*:2])N[*:1]; αMeL = CC(C)C[C@](C)(N)C(=O)O; AEEA = NCCOCCOCC(=O)O

In the case of `CC[C@H](C)[C@H](NC(=O)[C@H](CCC(=O)O)NC(=O)[C@H](C)NC(=O)[C@H](C)NC(=O)[C@H](CCC(=O)O)NC(=O)[C@H](CCCCNC(=O)CC[C@H](NC(=O)CNC(=O)[C@H](CCCCN)NC(=O)[C@H](CCC(=O)O)NC(=O)[C@H](CCCCN)NC(=O)[C@H](CCC(=O)O)NC(=O)[C@H](CCCCN)NC(=O)[C@H](CCC(=O)O)NC(=O)CCCCCCCCCCCCCCCCCCC(=O)O)C(=O)O)NC(=O)[C@H](C)NC(=O)[C@H](CCC(N)=O)NC(=O)[C@H](CCC(N)=O)NC(=O)[C@H](CCCNC(=N)N)NC(=O)[C@H](C)NC(=O)[C@H](CCCCN)NC(=O)[C@H](CCC(=O)O)NC(=O)[C@H](C)NC(=O)[C@H](CCCNC(=N)N)NC(=O)[C@H](CCC(=O)O)NC(=O)[C@H](CCC(N)=O)NC(=O)[C@H](CCC(=O)O)NC(=O)[C@H](CC(C)C)NC(=O)[C@@H](NC(=O)[C@H](CCCCN)NC(=O)[C@H](CCC(N)=O)NC(=O)[C@H](CC(C)C)NC(=O)[C@](C)(CC(C)C)NC(=O)C(C)(C)NC(=O)[C@@H](NC(=O)[C@@H]1CCCN1C(=O)[C@@H](NC(=O)[C@H](CC(=O)O)NC(=O)[C@](C)(CC(C)C)NC(=O)[C@H](CO)NC(=O)[C@@H](NC(=O)[C@@H](NC(=O)[C@@H](NC(=O)[C@H](CO)NC(=O)[C@@H]1CCCN1C(=O)[C@H](CO)NC(=O)CNC(C)=O)[C@@H](C)CC)C(C)C)[C@@H](C)O)C(C)C)[C@@H](C)O)[C@@H](C)CC)C(=O)N[C@@H](CC(C)C)C(=O)N[C@@H](C)C(=O)N[C@@H](CCC(N)=O)C(=O)N[C@H](C(N)=O)C(C)C` [SEQ ID NO: 6, Ac-GSPSIVTS αMeL DVPT Aib αMeL LQKILEQERAEKARQQAK(γE-GKEKEKE-CO-(CH2)18-CO2H)EAAEILAQV-NH2], the EC50 is > 1e+07 pM on human CRHR1 and 10.1 ± 2.5 pM at human CRHR2.
As to `CC[C@H](C)[C@H](NC(C)=O)C(=O)N[C@H](C(=O)N[C@H](C(=O)N[C@@H](CO)C(=O)N[C@@](C)(CC(C)C)C(=O)N[C@@H](CC(=O)O)C(=O)N[C@@H](C(=O)N1CCC[C@H]1C(=O)N[C@H](C(=O)NCC(=O)N[C@@](C)(CC(C)C)C(=O)N[C@@H](CC(C)C)C(=O)N[C@@H](CCC(N)=O)C(=O)N[C@H](C(=O)N[C@@H](CCCCN)C(=O)N[C@@H](CC(C)C)C(=O)N[C@@H](CCC(=O)O)C(=O)N[C@@H](CCC(N)=O)C(=O)N[C@@H](CCC(=O)O)C(=O)N[C@@H](CCCNC(=N)N)C(=O)N[C@@H](C)C(=O)N[C@@H](CCC(=O)O)C(=O)N[C@@H](CCCCN)C(=O)N[C@@H](C)C(=O)N[C@@H](CCCNC(=N)N)C(=O)N[C@@H](CCC(N)=O)C(=O)N[C@@H](CCC(N)=O)C(=O)N[C@@H](C)C(=O)N[C@@H](CCCCNC(=O)CC[C@H](NC(=O)COCCOCCNC(=O)CC[C@H](NC(=O)CCCCCCCCCCCCCCCCCCC(=O)O)C(=O)O)C(=O)O)C(=O)N[C@@H](CCC(=O)O)C(=O)N[C@@H](CC(N)=O)C(=O)N[C@H](C(=O)N[C@@H](CCC(=O)O)C(=O)N[C@H](C(=O)N[C@@H](CC(C)C)C(=O)N[C@@H](C)C(=O)N[C@@H](CCC(N)=O)C(=O)N[C@H](C(N)=O)C(C)C)[C@@H](C)CC)[C@@H](C)O)[C@@H](C)CC)[C@@H](C)O)C(C)C)[C@@H](C)O)C(C)C` [SEQ ID NO: 30, Ac-IVTS αMeL D (D-Val) PTG αMeL LQIKLEQERAEKARQQAK(γE-(2-[2-(2-Amino-ethoxy)-ethoxy]-acetyl)-γE-CO-(CH2)18-CO2H)ENTEILAQV-NH2] (Ac-IVTS[αMeL]D[dV]PTG[αMeL]LQIKLEQERAEKARQQAK([γGlu-AEEA-γGlu-C20 diacid])ENTEILAQV-NH2), the results for the EC50 at human CRHR1 and at human CRHR2 were > 1e+07 pM and 5.7 ± 0.1 pM, respectively.
Regarding `CC[C@H](C)[C@H](NC(C)=O)C(=O)N[C@H](C(=O)N[C@H](C(=O)N[C@@H](CO)C(=O)N[C@@](C)(CC(C)C)C(=O)N[C@@H](CC(=O)O)C(=O)N[C@@H](C(=O)N1CCC[C@H]1C(=O)N[C@H](C(=O)NCC(=O)N[C@@](C)(CC(C)C)C(=O)N[C@@H](CC(C)C)C(=O)N[C@@H](CCC(N)=O)C(=O)N[C@H](C(=O)N[C@@H](CCCCN)C(=O)N[C@@H](CC(C)C)C(=O)N[C@@H](CCC(=O)O)C(=O)N[C@@H](CCC(N)=O)C(=O)N[C@@H](CCC(=O)O)C(=O)N[C@@H](CCCNC(=N)N)C(=O)N[C@@H](C)C(=O)N[C@@H](CCC(=O)O)C(=O)N[C@@H](CCCCN)C(=O)N[C@@H](C)C(=O)N[C@@H](CCCNC(=N)N)C(=O)N[C@@H](CCC(N)=O)C(=O)N[C@@H](CCC(N)=O)C(=O)N[C@@H](C)C(=O)N[C@@H](CCCCNC(=O)CC[C@H](NC(=O)CC[C@H](NC(=O)COCCOCCNC(=O)CCCCCCCCCCCCCCCCCCC(=O)O)C(=O)O)C(=O)O)C(=O)N[C@@H](CCC(=O)O)C(=O)N[C@@H](CC(N)=O)C(=O)N[C@H](C(=O)N[C@@H](CCC(=O)O)C(=O)N[C@H](C(=O)N[C@@H](CC(C)C)C(=O)N[C@@H](C)C(=O)N[C@@H](CCC(N)=O)C(=O)N[C@H](C(N)=O)C(C)C)[C@@H](C)CC)[C@@H](C)O)[C@@H](C)CC)[C@@H](C)O)C(C)C)[C@@H](C)O)C(C)C` [SEQ ID NO: 31, Ac-IVTS αMeL D (D-Val) PTG αMeL LQIKLEQERAEKARQQAK((γE)2-(2-[2-(2-Amino-ethoxy)-ethoxy]-acetyl)-CO-(CH2)18-CO2H)ENTEILAQV-NH2] (Ac-IVTS[αMeL]D[dV]PTG[αMeL]LQIKLEQERAEKARQQAK([γGlu-γGlu-AEEA-C20 diacid])ENTEILAQV-NH2), the figures for the EC50 at human CRHR1 and on human CRHR2 were > 1e+07 pM and 4.5 ± 0.7 pM, respectively.

Broadly, the EC50 is the concentration at which the effect is half-maximal.
